What is called Kd is the constant that tells how readily two partners part at equilibrium. A high value points to lower affinity.

Bridges are numbered along the chain shown (N, C = ends). Roman numbers before positions name the chains, in order. Where no end group is shown, it is not given here.

For one series, the target named is Aβ40-1. Description: Competitive ELISA with reversed Aβ (Aβ40-1) as negative control. It counts as binding. Particulars: competitive ELISA with biotinylated reverse Aβ40-1; signal only at the highest neurolide concentration; p < 0.0001 versus Aβ1-40. As for the experimental part: NL1 and NL1-derived peptide binding to Aβ was measured by competitive ELISA using the shorter Aβ1-40 peptide with a slower polymerization constant, optimized for this binding assay. Recombinant NL1 (3.125 nM) was immobilized on a poly-sorb 96-well plate (NUNC, Roskilde, Denmark) using sodium bicarbonate buffer (pH 9.6), and left overnight at 4 °C, followed by washing with PBST buffer (PBS supplemented with 0.1% [vol/vol] Tween-20, pH 7.4). In separate tubes, biotinylated Aβ1-40, at final concentration 400 nM, was premixed with serially diluted NL1 or NL1-derived peptides for 30 min. A reversed version of Aβ (Aβ40-1) was used as the respective negative control (Supplementary Fig. 1). After preincubation, the samples were centrifuged at 20,000 × g for 10 min at 4 °C and 100 μl of the mixtures were transferred in triplicates onto the precoated ELISA plate. Plates were incubated at room temperature for 4 h, followed by washing and incubation with streptavidin-HRP conjugate (1:1000, 1 h; Dako, Glostrup, Denmark). The signal was developed with TMB ONE (KEM-EN-TEC, Denmark), and the reaction was terminated with 0.2 M H2SO4. Absorbance was measured at 450 nm on a Wallac VICTOR2 1420 Multilabel Counter (PerkinElmer, Hvidovre, Denmark). […]
(ELISA stands for enzyme-linked immunosorbent assay.)

The subject of another series is rats. Particulars: cited from earlier work.
The subject of series [1] is WT and 5XFAD mice. Nature of the series: Y-maze test. Type of series: in vivo, mouse. As to conditions: 10 mg/kg s.c. three times a week for 10 weeks. As for the experimental part: (§1) At the age of 2 months, 5XFAD and WT mice were injected subcutaneously (s.c.) with either neurolide (10 mg/kg) or saline in a volume of 0.1 ml/10 g of body weight three times a week for 10 weeks.
To estimate the effect of neurolide on spatial working memory, the Y-maze test was used, wherein the recording of alternation behavior was assessed. Mice were placed in the middle of the three-arm maze, joined with equal angle between all arms, and allowed to explore the maze freely for 8 min. The sequence and total number of entries into each arm were assessed in video recordings. Arm entry was considered completed when the hind paws of the mouse had been placed in the arm. An actual alternation was defined as entries into all three arms on consecutive choices. Percentage alternation was calculated as the ratio of actual to possible alternation (defined as total number of arm entries − 2) × 100, as follows: %Alternation=Number of alternations/Total arm entries-2×100.

Series [2] relates to WT and 5XFAD mice. Nature of the series: Novel object recognition task. It counts as in vivo, mouse. As to conditions: 10 mg/kg s.c. three times a week for 10 weeks. As for the experimental part:
as §1
The novel object recognition assay is based on the innate tendency of animals to differentially explore novel and familiar objects and consists of habituation, training, short-term (2 h) and long-term (24 h) memory retention sessions. On day 1, the mice were habituated to the test area (a 35 × 35 cm box with a floor divided into 16 squares). Each mouse was placed into a box without objects and allowed to explore it freely for 5 min. During a training session, a mouse was placed in the test box and exposed to 2 identical nontransparent glass objects placed in the box. During 5 min, locomotion and exploration time for both objects were recorded. Exploration of an object was defined as pointing the nose to the object at a distance of ≤ 1 cm and/or touching it with the nose. Climbing or sitting on the object was not considered exploration. Short-term memory retention was evaluated 2 h after the training session, whereas long-term memory retention was evaluated 24 h after the training session. During both sessions, mice were exposed to the familiar object and to a novel object. The exploration time for the familiar and novel objects and locomotion were recorded for 5 min. Mice failing to explore one or both objects in the training trial were excluded from the statistical analysis.

For series [3] the following is noted: cited from earlier work.

“I: SEGNRWSNSTKGLFQRAKK-NH2 / II: SEGNRWSNSTKGLFQRAK / III: SEGNRWSNSTKGLFQRA / IV: SEGNRWSNSTKGLFQRA (amide I:18-IV:C, I:19-II:C, II:18-III:C; C-terminus assumed) [neurolide]”: the affinity on Aβ40-1, expressed as Kd, was 7.5 µM. Also, in the series on rats, the “spatial memory deficits induced by NMDAR-antagonist MK801” value is listed as “counteracted spatial memory deficits”. For the same substance, in the series on rats (healthy rats), the “spatial learning, social behavior, and locomotor activity” value is reported as “had no effect”. In addition, in the series on WT and 5XFAD mice [1] (p-value for treatment 0.9532), the “Y-maze number of arms entered” value is reported as “had no effect”. In addition, the Y-maze alternation rate entry with WT and 5XFAD mice [1] (test at week 11) is on record as “had no effect”. For the same substance, the “recognition index, short-term memory (2 h)” value in the series on WT and 5XFAD mice [2] (5XFAD mice, versus vehicle, p < 0.05) is listed as “significantly enhanced”; in the series on WT and 5XFAD mice [2] (WT mice, vehicle higher than neurolide, p < 0.01) it was “impairs memory”. Also, the “recognition index, long-term memory (24 h)” value in the series with WT and 5XFAD mice [2] (WT and 5XFAD mice, same tendency as at 2 h) was “no longer statistically significant”. Also, in series [3], the “passage of the blood–brain-barrier” value was “in the range of nanograms”. For the same substance, in series [3] (systemically given), the plasma/CSF ratio entry was “approximately 20”. In addition, the “levels in CSF” value in series [3] (within 30 min after single s.c. administration) is “nanogram/low microgram levels”.

The values are drawn from PMC11790763, “A Peptide Motif Covering Splice Site B in Neuroligin-1 Binds to Aβ and Acts as a Neprilysin Inhibitor” (Molecular Neurobiology, 2024).
